Source: patent US11685766B2, “14-3-3 targeting peptides for cancer treatment” (Creighton University, priority 2019, dated 2023)
Several values for one entry are separate records, joined by “and”; a condition that tells them apart may be missing. Equal entries are not always repeated. Where two headings read alike, the source gives them in different places. Peptide text beside a SMILES is read from it.

System: SCC12B.2 cells
Type: cell-based, human
Description: Human skin cancer cell lines (SCC12B.2, SCC13, SRB12) were maintained in Dulbecco's modified Eagle's medium (DMEM) (Invitrogen, Carlsbad, Calif., USA) supplemented with 1% penicillin (10 000 U/ml)-streptomycin (10 000 μg/ml) (PenStrep) (Invitrogen) and 10% fetal bovine serum (Gemini Bio-Products, Sacramento, Calif., USA) at 37° C. and 5% CO2. Normal human epidermal keratinocytes (nHEK) (Thermo Scientific, Waltham, Mass., USA) isolated from neonatal foreskin were cultured in EpiLife medium (Invitrogen) supplemented with human keratinocyte growth supplement (Invitrogen) and 1% PenStrep (Invitrogen). Cells were transfected with control pcDNA or pcDNA3.1-HA-14-3-3ε (Addgene plasmid #48797; http://n2t.net/addgene:48797; RRID:Addgene_48797) using Lipofectamine/Plus reagents (Life Technologies, Carlsbad, Calif., USA) or with siRNA targeting 14-3-3ε (Dharmacon, Lafayette, Colo., USA), 14-3-3γ (Dharmacon), 14-3-3ζ, (Dharmacon), Survivin (Cell Signaling, Danvers, Mass., USA), Akt (Dharmacon) or control siRNA (Santa Cruz Biotechnology, Dallas, Tex., USA) using siQuest transfection reagents (Mirus Bio, Madison, Wis., USA) or treated with Akt inhibitor GSK690693 (Tocris Bioscience, Bristol, United Kingdom) or cell cycle inhibitor 5-Fluorouracil (5-FU) (Thermo Fisher) resuspended in DMSO.
To determine the half maximal inhibitory concentration (IC50) for ES1P2 in SCC12B.2 and nHEK cells, cells were plated in a 96-well plate at a density of 6×10^3 cells/well. Twenty-four hours after plating, cells were treated with increasing concentrations of ES1P2 (0-75 μM) in Opti MEM medium supplemented with reduced serum (Invitrogen) for 4 consecutive days. ES1P2 peptide was resuspended fresh, daily in 25 mM Tris buffer (pH 7.5). Neutral Red Cell Viability assays were performed, where absorbance was measured using a Cytation 5 multi-mode plate reader (BioTek). The experiment was repeated three separate times with 4 replicate wells per experiment to obtain an average IC50 value.
Carcinoma human cell lines (SCC12B.2 and SCC13) were maintained in Dulbecco's modified Eagle's medium (DMEM) (Invitrogen, Carlsbad, Calif., USA) supplemented with 1% penicillin (10 000 U/ml)-streptomycin (10 000 μg/ml) (PenStrep) (Invitrogen) and 10% fetal bovine serum (Gemini Bio-Products, Sacramento, Calif., USA) at 37° C. and 5% CO2. Primary normal human epidermal keratinocytes (nHEK) (Thermo Fisher Scientific, Waltham, Mass., USA) isolated from neonatal foreskin were maintained in EpiLife medium (Invitrogen) supplemented with human keratinocyte growth supplement (HKGS) and 1% PenStrep. nHEK cells were not passaged more than twice before experiments. Cells were treated with CDC25A inhibitor NSC663284 (Tocris Bioscience, Bristol, United Kingdom) suspended in DMSO, transfected with wild type CDC25A or control plasmid using Lipofectamine/Plus transfection reagents (Life Technologies, Carlsbad, Calif., USA) or transfected with siRNA targeting 14-3-3 ε or control siRNA (Santa Cruz Biotechnology, Dallas, Tex., USA) using siQuest transfection reagents (Mirus Bio, Madison, Wis., USA).
To determine the half maximal inhibitory concentration (IC50) for pS and pT in SCC12B.2 cells, cells were plated in a 96-well plate at a density of 6×10^3 cells/well. […] Neutral Red Cell Viability assays were performed, where absorbance was measured using a Cytation 5 multi-mode plate reader (BioTek). […]

Row | Compound | IC50 [µM] | SCC cells alive (20 μM, alone, FIG. 1D) [% alive] | IC50 (SCC12B.2 cells, Neutral Red, treated 4 consecutive days, 0-75 μM, read-out: IC50 in SCC cells (cell viability dose response))
1 | CSCC[C@H](NC(=O)[C@H](CCCNC(=N)N)NC(=O)[C@@H]1CCCN1C(=O)[C@H](C)NC(=O)[C@H](COP(=O)(O)O)NC(=O)[C@H](CC(N)=O)NC(=O)[C@H](CCC(N)=O)NC(=O)[C@H](CCCNC(=N)N)NC(=O)[C@H](CCC(N)=O)NC(=O)[C@@H](NC(C)=O)[C@@H](C)O)C(=O)N[C@@H](CC(C)C)C(=O)N[C@@H](CO)C(=O)N[C@@H](CO)C(=O)N[C@@H](CC(N)=O)C(N)=O [pS, Ac-Thr-Gln-Arg-Gln-Asn-Ser-(PO3^2−)-Ala-Pro-Arg-Met-Leu-Ser-Ser-Asn-NH2] (HELM PEPTIDE1{[ac].T.Q.R.Q.N.[O=C([C@H](COP(=O)(O)O)N[*:1])[*:2]].A.P.R.M.L.S.S.N.[am]}$$$$V2.0) | 29 | – | –
2 | NCCCC[C@H](NC(=O)[C@H](Cc1c[nH]c2ccccc12)NC(=O)[C@H](Cc1ccc(O)cc1)NC(=O)[C@@H](N)Cc1c[nH]c2ccccc12)C(N)=O [ES1P2, Trp-Tyr-Trp-Lys-NH2] (H-WYWK-NH2) | 20.6 | 62 | –
3 | CC(=O)N[C@@H](CCCNC(=N)N)C(=O)N[C@H](C(=O)N[C@@H](CCCCN)C(=O)N[C@@H](CO)C(=O)N[C@@H](CCCNC(=N)N)C(=O)N[C@H](C(=O)N[C@@H](Cc1c[nH]c2ccccc12)C(=O)N[C@@H](C)C(=O)NCC(=O)N[C@@H](CCC(=O)O)C(=O)N[C@@H](CCCCN)C(=O)N[C@@H](CO)C(=O)N[C@@H](CCCCN)C(=O)N[C@@H](CCCNC(=N)N)C(N)=O)[C@@H](C)OP(=O)(O)O)[C@@H](C)O [pT, Ac-Arg-Thr-Lys-Ser-Arg-Thr(PO3^2−)-Trp-Ala-Gly-Glu-Lys-Ser-Lys-Arg-NH2] (HELM PEPTIDE1{[ac].R.T.K.S.R.[C[C@@H](OP(=O)(O)O)[C@H](N[*:1])C(=O)[*:2]].W.A.G.E.K.S.K.R.[am]}$$$$V2.0) | – | – | 22.1 µM and 22.6 µM
